Source: publication PMC5110965, “Evolutionarily conserved odorant receptor function questions ecological context of octenol role in mosquitoes” (Scientific Reports, 2016)

Tests used:
TaOR8 [1] = tested on: T1, TaOR8; test: two-electrode voltage clamp in Xenopus oocytes, concentration-response; format: cell-based, Toxorhynchites amboinensis
T1 construct: gene Or8; with TaORco

TaOR8 [2] = tested on: T1, TaOR8; test: two-electrode voltage clamp; […] DEET against […] (R)-octenol response; format: cell-based, Toxorhynchites amboinensis; details: 1000 µM

| SMILES | EC50 (TaOR8 [1]) [µM] | % inhibition at 10^-3 M (TaOR8 [2]) |
| --- | --- | --- |
| C=CC(O)CCCCC (racemic) [(RS), (RS)-1-octen-3-ol] | 3.29 | – |
| C=C[C@H](O)CCCCC [(R), (R)-(−)-1-octen-3-ol] | 0.401 | – |
| C=C[C@@H](O)CCCCC [(S), (S)-(+)-1-octen-3-ol] | 50.6 | – |
| CCN(CC)C(=O)c1cccc(C)c1 [DEET, N,N-Diethyl-meta-toluamide] | – | 90 |
